Measurements as given in the kinase profiling compilation of Christmann-Franck et al. (2016).

What was measured:
Assay in all cases: KINOMEscan competition binding
Details in all cases: compound 10.0 µM
STK38L (human) = STK38L (human) (UniProt Q9Y2H1)
ANKK1 (human) = ANKK1 (human) (UniProt Q8NFD2)
PLK1 (human) = PLK1 (human) (UniProt P53350)
ALK (human) = ALK (human) (UniProt Q9UM73)
RPS6KA5 KD1 (human) = RPS6KA5 KD1 (human) (UniProt O75582)
TLK2 (human) = TLK2 (human) (UniProt Q86UE8)
AURKB (human) = AURKB (human) (UniProt Q96GD4)
MAPK11 (human) = MAPK11 (human) (UniProt Q15759)
DCLK2 (human) = DCLK2 (human) (UniProt Q8N568)
TYRO3 (human) = TYRO3 (human) (UniProt Q06418)
TYRO3 (human), sequence (Q06418 whole entry, looked up): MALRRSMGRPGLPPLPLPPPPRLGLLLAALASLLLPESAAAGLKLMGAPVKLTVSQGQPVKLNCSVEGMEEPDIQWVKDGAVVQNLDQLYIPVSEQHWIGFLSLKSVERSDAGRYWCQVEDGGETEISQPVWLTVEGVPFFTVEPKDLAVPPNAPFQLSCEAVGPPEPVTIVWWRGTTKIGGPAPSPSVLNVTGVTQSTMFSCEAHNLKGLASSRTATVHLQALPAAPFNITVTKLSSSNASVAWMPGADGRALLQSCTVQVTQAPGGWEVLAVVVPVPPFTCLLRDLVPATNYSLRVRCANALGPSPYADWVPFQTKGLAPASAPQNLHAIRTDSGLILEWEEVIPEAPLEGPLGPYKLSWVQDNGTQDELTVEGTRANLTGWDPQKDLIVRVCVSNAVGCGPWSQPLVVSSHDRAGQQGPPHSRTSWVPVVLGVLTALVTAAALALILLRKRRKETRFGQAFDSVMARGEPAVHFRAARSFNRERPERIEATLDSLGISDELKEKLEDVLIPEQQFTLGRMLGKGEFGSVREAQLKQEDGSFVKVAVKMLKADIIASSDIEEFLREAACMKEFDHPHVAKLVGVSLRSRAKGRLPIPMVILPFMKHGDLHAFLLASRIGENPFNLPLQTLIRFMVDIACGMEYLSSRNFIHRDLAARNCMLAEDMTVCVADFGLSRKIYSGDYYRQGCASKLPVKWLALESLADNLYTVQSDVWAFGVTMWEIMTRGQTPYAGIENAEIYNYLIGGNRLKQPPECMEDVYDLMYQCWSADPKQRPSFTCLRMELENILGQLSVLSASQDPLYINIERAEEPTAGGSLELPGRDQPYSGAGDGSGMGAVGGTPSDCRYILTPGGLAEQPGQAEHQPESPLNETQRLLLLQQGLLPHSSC

MKNK1 (human) = MKNK1 (human) (UniProt Q9BUB5)
DYRK1B (human) = DYRK1B (human) (UniProt Q9Y463)
MARK2 (human) = MARK2 (human) (UniProt Q7KZI7)
FLT3 (human) = FLT3 (human) (UniProt P36888)
PRKG1 (human) = PRKG1 (human) (UniProt Q13976)
KDR (human) = KDR (human) (UniProt P35968)
CLK4 (human) = CLK4 (human) (UniProt Q9HAZ1)
PTK6 (human) = PTK6 (human) (UniProt Q13882)
PIP4K2B (human) = PIP4K2B (human) (UniProt P78356)
RIOK2 (human) = RIOK2 (human) (UniProt Q9BVS4)
NEK1 (human) = NEK1 (human) (UniProt Q96PY6)
[1] = system: FLT3 (human), P36888 [N841I]
CAMK1D (human) = CAMK1D (human) (UniProt Q8IU85)
EPHA7 (human) = EPHA7 (human) (UniProt Q15375)
MAPK13 (human) = MAPK13 (human) (UniProt O15264)
MYLK2 (human) = MYLK2 (human) (UniProt Q9H1R3)
CSNK2A2 (human) = CSNK2A2 (human) (UniProt P19784)
PRKX (human) = PRKX (human) (UniProt P51817)
EPHB3 (human) = EPHB3 (human) (UniProt P54753)
PRKCE (human) = PRKCE (human) (UniProt Q02156)
PRKCE (human), sequence (Q02156 whole entry, looked up): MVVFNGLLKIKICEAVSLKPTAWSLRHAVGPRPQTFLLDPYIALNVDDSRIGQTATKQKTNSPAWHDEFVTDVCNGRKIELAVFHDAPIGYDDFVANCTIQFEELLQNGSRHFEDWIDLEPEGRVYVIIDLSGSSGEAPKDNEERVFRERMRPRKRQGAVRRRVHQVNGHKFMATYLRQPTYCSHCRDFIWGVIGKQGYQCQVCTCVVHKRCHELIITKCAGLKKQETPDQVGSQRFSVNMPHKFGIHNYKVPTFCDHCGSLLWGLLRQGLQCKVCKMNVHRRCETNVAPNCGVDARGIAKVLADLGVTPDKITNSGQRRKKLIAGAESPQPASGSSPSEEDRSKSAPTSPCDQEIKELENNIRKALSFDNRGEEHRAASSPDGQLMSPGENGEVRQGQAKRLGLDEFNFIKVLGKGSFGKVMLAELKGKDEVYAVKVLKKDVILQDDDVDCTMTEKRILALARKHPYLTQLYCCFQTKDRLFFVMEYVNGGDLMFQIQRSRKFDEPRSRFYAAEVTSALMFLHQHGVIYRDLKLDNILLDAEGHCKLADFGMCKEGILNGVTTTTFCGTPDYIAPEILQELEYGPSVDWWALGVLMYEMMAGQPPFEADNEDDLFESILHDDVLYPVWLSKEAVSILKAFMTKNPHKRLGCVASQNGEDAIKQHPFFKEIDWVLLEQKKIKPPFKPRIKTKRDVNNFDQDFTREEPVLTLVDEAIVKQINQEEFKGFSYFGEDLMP

HIPK1 (human) = HIPK1 (human) (UniProt Q86Z02)
RPS6KA5 KD2 (human) = RPS6KA5 KD2 (human) (UniProt O75582)
[2] = system: FLT3 (human), P36888 [ITD]
PAK2 (human) = PAK2 (human) (UniProt Q13177)
MAP4K5 (human) = MAP4K5 (human) (UniProt Q9Y4K4)
TAOK1 (human) = TAOK1 (human) (UniProt Q7L7X3)
TAOK1 (human), sequence (Q7L7X3 whole entry, looked up): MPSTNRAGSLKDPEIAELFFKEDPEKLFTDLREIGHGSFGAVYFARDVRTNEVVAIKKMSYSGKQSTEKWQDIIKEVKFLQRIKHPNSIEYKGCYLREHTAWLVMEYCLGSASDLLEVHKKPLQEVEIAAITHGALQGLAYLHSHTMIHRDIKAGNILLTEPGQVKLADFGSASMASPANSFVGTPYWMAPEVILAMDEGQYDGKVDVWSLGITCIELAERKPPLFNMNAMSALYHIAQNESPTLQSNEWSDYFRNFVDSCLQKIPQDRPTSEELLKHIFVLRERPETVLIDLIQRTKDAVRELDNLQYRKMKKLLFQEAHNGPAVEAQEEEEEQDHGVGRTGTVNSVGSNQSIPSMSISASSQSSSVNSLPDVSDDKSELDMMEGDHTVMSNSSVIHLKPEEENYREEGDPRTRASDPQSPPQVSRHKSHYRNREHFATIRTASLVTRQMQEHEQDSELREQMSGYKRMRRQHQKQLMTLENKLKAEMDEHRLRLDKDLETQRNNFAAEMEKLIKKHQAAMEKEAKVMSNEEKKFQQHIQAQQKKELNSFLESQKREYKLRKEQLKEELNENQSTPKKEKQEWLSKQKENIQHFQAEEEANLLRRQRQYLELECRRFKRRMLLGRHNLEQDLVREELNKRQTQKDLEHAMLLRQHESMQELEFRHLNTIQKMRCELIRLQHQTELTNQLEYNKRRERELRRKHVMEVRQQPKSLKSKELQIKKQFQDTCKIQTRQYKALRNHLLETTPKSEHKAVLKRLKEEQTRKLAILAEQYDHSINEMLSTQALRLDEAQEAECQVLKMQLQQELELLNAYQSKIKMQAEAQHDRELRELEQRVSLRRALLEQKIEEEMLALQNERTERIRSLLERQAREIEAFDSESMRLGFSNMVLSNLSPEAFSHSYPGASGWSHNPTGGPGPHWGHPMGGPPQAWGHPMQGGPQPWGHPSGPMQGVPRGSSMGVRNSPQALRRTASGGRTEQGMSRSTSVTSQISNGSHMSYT

STK17B (human) = STK17B (human) (UniProt O94768)
LATS1 (human) = LATS1 (human) (UniProt O95835)
PRKAA1 (human) = PRKAA1 (human) (UniProt Q13131)
PRKAA1 (human), sequence (Q13131 whole entry, looked up): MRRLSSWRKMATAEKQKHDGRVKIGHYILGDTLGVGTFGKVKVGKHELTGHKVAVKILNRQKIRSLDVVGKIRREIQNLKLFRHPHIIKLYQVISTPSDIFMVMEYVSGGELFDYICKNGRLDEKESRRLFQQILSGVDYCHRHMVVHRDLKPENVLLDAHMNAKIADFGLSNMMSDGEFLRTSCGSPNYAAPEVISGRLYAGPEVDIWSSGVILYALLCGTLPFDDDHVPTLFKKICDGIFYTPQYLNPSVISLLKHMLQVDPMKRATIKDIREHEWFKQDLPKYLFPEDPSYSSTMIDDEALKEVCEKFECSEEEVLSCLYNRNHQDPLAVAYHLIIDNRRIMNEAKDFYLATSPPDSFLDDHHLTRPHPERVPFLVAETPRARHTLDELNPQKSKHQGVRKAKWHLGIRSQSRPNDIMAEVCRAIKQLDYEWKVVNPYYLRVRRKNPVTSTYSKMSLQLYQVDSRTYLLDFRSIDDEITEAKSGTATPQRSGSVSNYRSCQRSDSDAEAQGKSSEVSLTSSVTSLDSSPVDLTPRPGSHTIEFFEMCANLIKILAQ

ROS1 (human) = ROS1 (human) (UniProt P08922)

ALK (human), sequence (Q9UM73 whole entry, looked up): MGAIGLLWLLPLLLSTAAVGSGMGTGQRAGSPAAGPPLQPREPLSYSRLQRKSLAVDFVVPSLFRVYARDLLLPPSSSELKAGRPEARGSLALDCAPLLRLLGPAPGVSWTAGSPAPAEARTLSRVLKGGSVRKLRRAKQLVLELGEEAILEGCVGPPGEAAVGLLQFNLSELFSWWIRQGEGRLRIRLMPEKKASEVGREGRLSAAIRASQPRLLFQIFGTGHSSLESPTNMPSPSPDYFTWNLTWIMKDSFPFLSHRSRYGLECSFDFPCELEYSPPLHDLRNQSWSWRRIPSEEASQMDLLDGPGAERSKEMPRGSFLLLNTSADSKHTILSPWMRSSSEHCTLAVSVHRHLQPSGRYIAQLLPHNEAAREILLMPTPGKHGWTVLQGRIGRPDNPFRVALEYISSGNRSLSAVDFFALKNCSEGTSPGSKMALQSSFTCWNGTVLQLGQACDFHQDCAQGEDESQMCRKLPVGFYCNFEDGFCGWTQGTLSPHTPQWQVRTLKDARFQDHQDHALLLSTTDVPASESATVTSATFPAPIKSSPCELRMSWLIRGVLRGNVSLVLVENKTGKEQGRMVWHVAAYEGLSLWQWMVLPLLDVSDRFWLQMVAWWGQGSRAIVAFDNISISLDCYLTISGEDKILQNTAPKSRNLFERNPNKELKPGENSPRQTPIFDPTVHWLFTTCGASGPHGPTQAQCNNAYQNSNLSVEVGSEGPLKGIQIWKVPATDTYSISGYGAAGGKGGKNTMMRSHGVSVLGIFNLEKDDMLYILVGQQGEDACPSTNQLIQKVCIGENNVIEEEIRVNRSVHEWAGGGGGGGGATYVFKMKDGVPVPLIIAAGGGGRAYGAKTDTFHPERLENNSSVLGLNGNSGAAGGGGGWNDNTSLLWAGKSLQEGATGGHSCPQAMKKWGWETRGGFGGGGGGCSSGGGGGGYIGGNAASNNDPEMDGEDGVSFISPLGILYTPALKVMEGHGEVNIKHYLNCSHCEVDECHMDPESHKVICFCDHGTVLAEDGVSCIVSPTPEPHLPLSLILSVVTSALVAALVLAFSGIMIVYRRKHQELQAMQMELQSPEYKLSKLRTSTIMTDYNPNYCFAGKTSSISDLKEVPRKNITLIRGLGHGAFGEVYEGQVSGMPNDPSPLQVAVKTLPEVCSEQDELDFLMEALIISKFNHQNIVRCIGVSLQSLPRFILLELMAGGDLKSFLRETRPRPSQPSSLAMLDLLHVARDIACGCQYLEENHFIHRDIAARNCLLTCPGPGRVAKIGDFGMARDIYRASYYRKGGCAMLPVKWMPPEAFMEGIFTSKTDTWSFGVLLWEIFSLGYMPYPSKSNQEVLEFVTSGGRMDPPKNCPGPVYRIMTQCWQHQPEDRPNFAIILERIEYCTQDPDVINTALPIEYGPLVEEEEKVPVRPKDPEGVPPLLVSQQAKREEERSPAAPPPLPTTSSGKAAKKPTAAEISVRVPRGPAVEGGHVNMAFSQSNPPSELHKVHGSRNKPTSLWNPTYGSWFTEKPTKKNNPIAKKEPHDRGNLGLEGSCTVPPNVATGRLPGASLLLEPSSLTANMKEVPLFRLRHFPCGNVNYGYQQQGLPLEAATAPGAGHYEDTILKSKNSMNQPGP

| SMILES | kinase still bound, per cent of control (STK38L (human)) | kinase still bound, per cent of control (ANKK1 (human)) | kinase still bound, per cent of control (PLK1 (human)) | kinase still bound, per cent of control (ALK (human)) | kinase still bound, per cent of control (RPS6KA5 KD1 (human)) | kinase still bound, per cent of control (TLK2 (human)) | kinase still bound, per cent of control (AURKB (human)) | kinase still bound, per cent of control (MAPK11 (human)) | kinase still bound, per cent of control (DCLK2 (human)) | kinase still bound, per cent of control (TYRO3 (human)) | kinase still bound, per cent of control (MKNK1 (human)) | kinase still bound, per cent of control (DYRK1B (human)) | kinase still bound, per cent of control (MARK2 (human)) | kinase still bound, per cent of control (FLT3 (human)) | kinase still bound, per cent of control (PRKG1 (human)) | kinase still bound, per cent of control (KDR (human)) | kinase still bound, per cent of control (CLK4 (human)) | kinase still bound, per cent of control (PTK6 (human)) | kinase still bound, per cent of control (PIP4K2B (human)) | kinase still bound, per cent of control (RIOK2 (human)) | further results |
| --- | --- | --- | --- | --- | --- | --- | --- | --- | --- | --- | --- | --- | --- | --- | --- | --- | --- | --- | --- | --- | --- |
| Cn1c(=O)n(-c2ccc(C(C)(C)C#N)cc2)c2c3cc(-c4cnc5ccccc5c4)ccc3ncc21 | 100% | 100% | 100% | 100% | 100% | 100% | 100% | 100% | 100% | 100% | 100% | 100% | 100% | 100% | 100% | 100% | 22% | 100% | 100% | 100% | kinase still bound, per cent of control (NEK1 (human)): 100%; kinase still bound, per cent of control [1]: 100%; kinase still bound, per cent of control (CAMK1D (human)): 100%; kinase still bound, per cent of control (EPHA7 (human)): 100%; kinase still bound, per cent of control (MAPK13 (human)): 100%; kinase still bound, per cent of control (MYLK2 (human)): 100%; kinase still bound, per cent of control (CSNK2A2 (human)): 100%; kinase still bound, per cent of control (PRKX (human)): 100%; kinase still bound, per cent of control (EPHB3 (human)): 100%; kinase still bound, per cent of control (PRKCE (human)): 100%; kinase still bound, per cent of control (HIPK1 (human)): 100%; kinase still bound, per cent of control (RPS6KA5 KD2 (human)): 100%; kinase still bound, per cent of control [2]: 100%; kinase still bound, per cent of control (PAK2 (human)): 100%; kinase still bound, per cent of control (MAP4K5 (human)): 100%; kinase still bound, per cent of control (TAOK1 (human)): 100%; kinase still bound, per cent of control (STK17B (human)): 100%; kinase still bound, per cent of control (LATS1 (human)): 100%; kinase still bound, per cent of control (PRKAA1 (human)): 100%; kinase still bound, per cent of control (ROS1 (human)): 100% |
| C=CC(=O)Nc1cccc(Nc2nc(N[C@H]3CC[C@H](N(C)C)CC3)nc3c2ncn3C(C)C)c1 | 41% | 62% | 21% | 21% | 93% | 100% | 73% | 89% | 89% | 100% | 32% | 49% | 57% | 2.6% | 100% | 96% | 5.1% | 100% | 54% | 66% | kinase still bound, per cent of control (NEK1 (human)): 100%; kinase still bound, per cent of control [1]: 0%; kinase still bound, per cent of control (CAMK1D (human)): 67%; kinase still bound, per cent of control (EPHA7 (human)): 100%; kinase still bound, per cent of control (MAPK13 (human)): 94%; kinase still bound, per cent of control (MYLK2 (human)): 90%; kinase still bound, per cent of control (CSNK2A2 (human)): 48%; kinase still bound, per cent of control (PRKX (human)): 100%; kinase still bound, per cent of control (EPHB3 (human)): 83%; kinase still bound, per cent of control (PRKCE (human)): 52%; kinase still bound, per cent of control (HIPK1 (human)): 25%; kinase still bound, per cent of control (RPS6KA5 KD2 (human)): 95%; kinase still bound, per cent of control [2]: 1%; kinase still bound, per cent of control (PAK2 (human)): 61%; kinase still bound, per cent of control (MAP4K5 (human)): 60%; kinase still bound, per cent of control (TAOK1 (human)): 35%; kinase still bound, per cent of control (STK17B (human)): 22%; kinase still bound, per cent of control (LATS1 (human)): 100%; kinase still bound, per cent of control (PRKAA1 (human)): 78%; kinase still bound, per cent of control (ROS1 (human)): 99% |
